The source made the active and inactive calls. The calls are words filed in the database; no cut-off is given here.
How the values were obtained:
[1] = biological target: T1, NACHT, LRR and PYD domains-containing protein 3 (Mus musculus, UniProt Q8R4B8); assay: Inhibition of NLRP3 inflammasome activation in LPS/ATP-induced C57BL/6 mouse BMDMs assessed as reduction in IL-1beta secretion preincubated with LPS for 4 hrs followed by compound addition for 30 mins and further stimulated with ATP for 30 mins by ELISA; assay type: cell-based, BMDM
[2] = biological target: NACHT, LRR and PYD domains-containing protein 3 (Mus musculus) (UniProt Q8R4B8); details: BMDM, dose 10.0 nM, time 1.0 hrs
[3] = biological target: T1, NACHT, LRR and PYD domains-containing protein 3; assay: Inhibition of NLRP3 inflammasome activation in mouse J774.A1 cells; assay type: cell-based
[4] = biological target: NACHT, LRR and PYD domains-containing protein 3 (Mus musculus) (UniProt Q8R4B8); assay: Inhibition of NLRP3 inflammasome activation in LPS/ATP-induced C57BL/6 mouse BMDMs assessed as reduction in IL-1beta secretion at 100 nM preincubated with LPS for 4 hrs followed by compound addition for 30 mins and further stimulated with ATP for 30 mins by ELISA relative to control; assay type: cell-based; details: BMDM, time 1.0 hrs
[5] = biological target: NACHT, LRR and PYD domains-containing protein 3 (Mus musculus) (UniProt Q8R4B8); assay: Inhibition of NLRP3 inflammasome activation in LPS/ATP-induced C57BL/6 mouse BMDMs assessed as reduction in IL-1beta secretion at 200 nM preincubated with LPS for 4 hrs followed by compound addition for 30 mins and further stimulated with ATP for 30 mins by ELISA relative to control; assay type: cell-based; details: BMDM, time 1.0 hrs
[6] = biological target: NACHT, LRR and PYD domains-containing protein 3 (Mus musculus) (UniProt Q8R4B8); assay: Inhibition of NLRP3 inflammasome activation in LPS/ATP-induced C57BL/6 mouse BMDMs assessed as reduction in IL-1beta secretion at 500 nM preincubated with LPS for 4 hrs followed by compound addition for 30 mins and further stimulated with ATP for 30 mins by ELISA relative to control; assay type: cell-based; details: BMDM, time 1.0 hrs
[7] = biological target: hERG (KCNH2) (Homo sapiens, UniProt Q12809); assay: Inhibition of human ERG expressed in CHO cells at 40 uM relative to control; assay type: toxicity, cell-based; details: CHO cells that express human ERG
[8] = biological target: Voltage-gated inwardly rectifying potassium channel KCNH2 (Homo sapiens, UniProt Q12809); assay: Inhibition of human ERG expressed in CHO cells; assay type: toxicity, cell-based
[9] = Stability in human plasma assessed as half life measured upto 8 hrs; assay type: ADME, cell-free
[10] = Stability in rat plasma assessed as half life measured upto 8 hrs; assay type: ADME, cell-free
[11] = Stability in mouse plasma assessed as half life measured upto 8 hrs; assay type: ADME, cell-free
[12] = Stability in human liver microsomes assessed as half life preincubated for 5 mins with NADPH followed by compound addition and measured upto 120 mins by LC-MS/MS analysis; assay type: ADME, Microsome; details: time < 125 min
[13] = Stability in rat liver microsomes assessed as half life preincubated for 5 mins with NADPH followed by compound addition and measured upto 120 mins by LC-MS/MS analysis; assay type: ADME, Microsome; details: time < 125 min
[14] = Stability in mouse liver microsomes assessed as half life preincubated for 5 mins with NADPH followed by compound addition and measured upto 120 mins by LC-MS/MS analysis; assay type: ADME, Microsome; details: time < 125 min
[15] = Half-life in ICR mouse at 10 mg/kg, po measured upto 24 hrs by LC-MS/MS method; assay type: ADME, organism-based; details: in vivo
[16] = Half-life in ICR mouse at 1 mg/kg, iv measured upto 24 hrs by LC-MS/MS method; assay type: ADME, organism-based; details: in vivo
[17] = Cmax in ICR mouse at 10 mg/kg, po measured upto 24 hrs by LC-MS/MS method; assay type: ADME, organism-based; details: in vivo
[18] = AUC in ICR mouse at 10 mg/kg, po measured upto 24 hrs by LC-MS/MS method; assay type: ADME, organism-based; details: ICR, in vivo
[19] = AUC in ICR mouse at 1 mg/kg, iv measured upto 24 hrs by LC-MS/MS method; assay type: ADME, organism-based; details: ICR, in vivo
[20] = Clearance in ICR mouse at 1 mg/kg, iv measured upto 24 hrs by LC-MS/MS method; assay type: ADME, organism-based; details: in vivo
[21] = Oral bioavailability in ICR mouse at 10 mg/kg measured upto 24 hrs by LC-MS/MS method; assay type: ADME, organism-based; details: ICR, in vivo
[22] = tested on: Mus musculus; assay: Antiinflammatory activity in MSU-induced C57BL/6 mouse model of arthritis assessed as reduction in inflammatory cell infiltration at 12.5 mg/kg, iv measured after 24 hrs; assay type: functional, organism-based
[23] = Selectivity index, ratio of CC50 for cytotoxicity against C57BL/6 mouse BMDMs to IC50 for inhibition of NLRP3 inflammasome activation in C57BL/6 mouse BMDMs; assay type: toxicity; details: bone marrow-derived macrophages (BMDMs), read-out: Ratio CC50/IC50

NACHT, LRR and PYD domains-containing protein 3 (Mus musculus), sequence (Q8R4B8 whole entry, the tested form may be a part): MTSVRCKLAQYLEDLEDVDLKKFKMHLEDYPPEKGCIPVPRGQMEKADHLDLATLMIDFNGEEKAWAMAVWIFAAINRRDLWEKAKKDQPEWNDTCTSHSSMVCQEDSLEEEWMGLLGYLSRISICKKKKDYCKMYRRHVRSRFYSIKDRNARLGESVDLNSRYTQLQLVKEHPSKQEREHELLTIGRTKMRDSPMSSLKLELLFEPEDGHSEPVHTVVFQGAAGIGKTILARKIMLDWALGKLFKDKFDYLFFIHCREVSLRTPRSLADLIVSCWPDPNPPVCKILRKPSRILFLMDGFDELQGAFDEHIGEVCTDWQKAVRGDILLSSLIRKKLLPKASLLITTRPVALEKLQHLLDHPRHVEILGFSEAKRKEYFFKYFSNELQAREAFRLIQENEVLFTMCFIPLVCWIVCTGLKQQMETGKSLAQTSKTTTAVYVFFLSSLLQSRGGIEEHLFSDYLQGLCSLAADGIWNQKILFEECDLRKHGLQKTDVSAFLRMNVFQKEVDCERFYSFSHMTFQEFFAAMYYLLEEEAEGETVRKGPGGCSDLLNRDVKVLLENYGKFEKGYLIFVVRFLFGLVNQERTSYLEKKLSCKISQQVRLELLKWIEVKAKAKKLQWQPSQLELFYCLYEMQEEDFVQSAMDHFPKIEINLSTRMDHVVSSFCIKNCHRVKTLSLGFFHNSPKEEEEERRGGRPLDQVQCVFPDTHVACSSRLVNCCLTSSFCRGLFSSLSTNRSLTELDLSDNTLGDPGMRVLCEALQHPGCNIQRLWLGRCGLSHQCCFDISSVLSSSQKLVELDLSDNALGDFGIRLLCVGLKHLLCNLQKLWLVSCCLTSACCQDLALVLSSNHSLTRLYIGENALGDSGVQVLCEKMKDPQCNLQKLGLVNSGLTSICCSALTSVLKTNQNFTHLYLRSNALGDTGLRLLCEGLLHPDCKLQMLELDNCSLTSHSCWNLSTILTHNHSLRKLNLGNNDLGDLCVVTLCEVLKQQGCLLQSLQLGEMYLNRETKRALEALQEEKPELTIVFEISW
T1 sequence (Q8R4B8 whole entry, the tested form may be a part): as above
hERG (KCNH2), sequence (Q12809 whole entry): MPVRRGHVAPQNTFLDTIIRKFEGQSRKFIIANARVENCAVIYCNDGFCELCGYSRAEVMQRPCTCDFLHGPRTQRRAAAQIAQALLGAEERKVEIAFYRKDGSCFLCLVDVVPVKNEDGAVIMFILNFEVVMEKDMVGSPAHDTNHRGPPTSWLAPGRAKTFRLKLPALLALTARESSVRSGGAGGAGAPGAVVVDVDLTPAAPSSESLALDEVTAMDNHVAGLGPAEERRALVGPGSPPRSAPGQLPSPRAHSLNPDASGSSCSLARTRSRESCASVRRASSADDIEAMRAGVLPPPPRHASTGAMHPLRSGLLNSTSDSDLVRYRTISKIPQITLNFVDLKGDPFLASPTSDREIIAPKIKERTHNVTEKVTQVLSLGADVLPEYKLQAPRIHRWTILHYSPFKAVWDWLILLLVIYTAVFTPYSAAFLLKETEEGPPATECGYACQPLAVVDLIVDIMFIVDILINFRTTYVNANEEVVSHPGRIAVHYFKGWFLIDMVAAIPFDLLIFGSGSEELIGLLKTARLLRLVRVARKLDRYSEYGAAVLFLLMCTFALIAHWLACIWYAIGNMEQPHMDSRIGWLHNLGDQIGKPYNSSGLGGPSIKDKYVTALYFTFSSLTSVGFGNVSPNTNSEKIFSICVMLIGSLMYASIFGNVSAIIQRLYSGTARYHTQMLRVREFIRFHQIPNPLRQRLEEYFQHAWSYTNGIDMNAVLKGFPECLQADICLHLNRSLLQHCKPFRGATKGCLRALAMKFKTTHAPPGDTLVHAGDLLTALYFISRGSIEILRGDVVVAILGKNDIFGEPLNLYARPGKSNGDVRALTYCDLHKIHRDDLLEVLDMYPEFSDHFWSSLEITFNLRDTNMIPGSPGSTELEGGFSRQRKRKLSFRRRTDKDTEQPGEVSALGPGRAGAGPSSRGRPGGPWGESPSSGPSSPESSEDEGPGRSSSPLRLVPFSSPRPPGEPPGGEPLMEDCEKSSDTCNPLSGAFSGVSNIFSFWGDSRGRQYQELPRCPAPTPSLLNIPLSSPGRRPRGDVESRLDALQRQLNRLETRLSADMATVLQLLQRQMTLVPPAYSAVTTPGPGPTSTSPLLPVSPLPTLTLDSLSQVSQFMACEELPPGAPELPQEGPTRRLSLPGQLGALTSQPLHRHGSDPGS
Voltage-gated inwardly rectifying potassium channel KCNH2, sequence (Q12809 whole entry): as above

Compound `CC(C)n1ccc(S(=O)(=O)NC(=O)Nc2c3c(cc4c2CCC4)CCC3)n1` [INZOMELID] has an IC50 [1] of 14 nM and an inhibition [2] of 42.7%.

`CS(=O)(=O)/C=C/C#N` showed an IC50 [3] of 100 nM.

Compound `C=C1C(=O)[C@]23[C@H](O)[C@H]1CC[C@H]2[C@]12C=CCC(C)(C)[C@H]1[C@H](O)[C@@]3(OCc1cncs1)OC2` has an inhibition [4] of 77.3%, an inhibition [5] of 93.9% and an inhibition [6] of 97.3%. For the same compound, the IC50 [1] was 50.2 nM, the inhibition at 40 µM [7] was 43.3% and the IC50 [8] was over 40000 nM. The half-life [9] was 5.99 h, the half-life [10] was 1.74 h and the half-life [11] was 1.9 h. For the same compound, the half-life [12] was 4.22 min, the half-life [13] was 5.56 min and the half-life [14] was 3.13 min. It also gave a half-life [15] of 1.36 h, a half-life [16] of 1.5 h and a Cmax [17] of 11.4 ng/mL. The AUC at 24 h [18] was 10.8 ng·h/mL, the AUC at 24 h [19] was 337 ng·h/mL and the clearance [20] was 49.1 mL/min/kg. The bioavailability [21] was 0.64%.

For `CC(C)(O)c1coc(S(=O)(=O)NC(=O)Nc2c3c(cc4c2CCC4)CCC3)c1`, the Activity [22] was “Active” and the inhibition [2] was 80.5%.

`C=C1C(=O)[C@]23[C@H](O)[C@H]1CC[C@H]2[C@]12C=CCC(C)(C)[C@H]1[C@H](O)[C@@]3(OCCC(=O)N1CCOCC1)OC2` showed an inhibition [4] of 62.7%, an inhibition [5] of 83.9% and an inhibition [6] of 95.1%. The IC50 [1] was 72.2 nM and the selectivity ratio [23] was 30.2.

From ChEMBL document CHEMBL5506055, “Hit-to-Lead Optimization of the Natural Product Oridonin as Novel NLRP3 Inflammasome Inhibitors with Potent Anti-Inflammation Activity” (J Med Chem, 2024)
